The text below walks through data of article PMC4995097, “Talin-KANK1 interaction controls the recruitment of cortical microtubule stabilizing complexes to focal adhesions” (eLife, 2016).

In one assay the test system is HA-KANK1. Put plainly: Streptavidin pull down of BioGFP-talin1 constructs with HA-KANK1, Western blot. Format: binding. As to conditions: HEK293T cells. From the text:
BioGFP-tagged KANK1 mutants were constructed using PCR and pBioGFP-C1 vector as previously described ([van der Vaart et al., 2013]). Rescue constructs for BioGFP-tagged KANK1 were either based on the version previously described ([van der Vaart et al., 2013]) or a version obtained by PCR-based mutagenesis of the sequence […] to […]. mCherry-tagged paxillin construct was made by replacing GFP from pQC-GPXN ([Bouchet et al., 2011]) by mCherry (pmCherry-C1, Clontech). TagRFP-tagged paxillin construct was made by PCR-based amplification and cloning in pTagRFP-T-C1 (kind gift from Y. Mimori-Kiyosue, Riken Institute, Japan). HA-tagged KANK1 construct was generated by cloning KANK1 coding sequence into pMT2-SM-HA (gift of C. Hoogenraad, Utrecht University, The Netherlands). pLVX-IRES-Neo (pLVIN) vectors was constructed by cloning the IRES-neomycin resistance cassette from the pQCXIN plasmid (Clontech) into the pLVX-IRES-Puro plasmid (Clontech). […]
Streptavidin-based pull down assays of biotinylated proteins expressed using pBioGFP-C1 constructs transfected in HEK293T cells was performed and analyzed as previously described ([van der Vaart et al., 2013]). […] For RP-nanoLC-MS/MS, samples were resuspended in 10% formic acid (FA) / 5% DMSO and was analyzed using a Proxeon Easy-nLC100 (Thermo Scientific) connected to an Orbitrap Q-Exactive mass spectrometer. […]
(Immunoblotting shows a protein as a band on a membrane.)

Assay [1] deals with microtubule plus ends in HeLa cells. Put plainly: Angles of microtubule growth relative to the cell margin. Format: cell-based, human. The conditions noted are these: talin1/2-depleted HeLa. How it is done: nEB3-mRFP dynamics was recorded by 0.5 s interval time lapse TIRF imaging. Microtubule growth was measured using kymographs obtained from EB3-mRFP time lapse image series, plotted and presented as previously described ([van der Vaart et al., 2013]). Ratio of microtubule growth in cell center to periphery was obtained as values for individual cells. Microtubule growth trajectory angle to the cell edge was manually measured in ImageJ using tracks obtained by maximum intensity projection of EB3-mRFP image series.

For “GFP-talin1-G1404L: GFP-tagged mouse talin1 with single point mutation G1404L”, the “interaction of talin1 constructs with KANK1 (in words)” value in the assay on HA-KANK1 is “abrogated the interaction of full-length talin1 or its R7 fragment with full-length KANK1”. The “proportion of microtubules growing parallel to the cell edge (in words)” value in assay [1] was “greatly increased”.
